Measurements taken from patent publication US11161844B2, “Cyclic substituted imidazo[4,5-c]quinoline derivatives” (Pfizer Inc., priority 2017, dated 2021).

What was measured:
[1] = target: LRRK2, WT (GST-tagged truncated LRRK2) (Homo sapiens (Human), UniProt Q5S007); assay: LRRK2 kinase assay (Lantha Screen), wild type; format: biochemical; details: 100 nM LRRKtide, 1 mM ATP, 2 μg/mL enzyme; geometric mean of 2-4 determinations unless otherwise indicated
Description: (§1) LRRK2 kinase activity was measured using Lantha Screen technology from Invitrogen. GST-tagged truncated LRRK2 from Invitrogen (Cat #PV4874) was incubated with a fluorescein-labeled peptide substrate based upon ezrin/radixin/moesin (ERM), also known as LRRKtide (Invitrogen cat #PR8976A), in the presence of a dose response of compound. Upon completion, the assay was stopped and detected with a terbium labeled anti-phospho-ERM antibody (Invitrogen, cat #PR8975A). The assay was carried out under the following protocol: The compound dose response was prepared by diluting compound to a top concentration of 0.3 mM in 100% DMSO and serial diluted by half-log in DMSO to give an 11 point curve, 100× final assay concentration. Using Echo acoustic dispensing, 60 nL of compound was transferred to a low volume Corning 384-well assay plate. 3 μL of a working solution of substrate (200 nM LRRKtide, 2 mM ATP) prepared in assay buffer (50 mM HEPES, pH 7.5, 3 mM MgCl2, with 2 mM DTT and 0.01% Brij35 added fresh) was added to the 60 nL compound assay plate. The kinase reaction was started with 3 μL of a working solution of LRRK2 enzyme at a concentration of 4 μg/mL. The final reaction concentrations were 100 nM LRRKtide, 1 mM ATP, 2 μg/mL LRRK2 enzyme and a compound dose response with a top dose of 3 μM. The reaction was allowed to progress at room temperature for 30 minutes and then stopped with the addition of 6 μL of detection buffer (20 mM Tris pH 7.6, 0.01% NP-40, 6 mM EDTA with 2 nM terbium labeled anti-phospho-ERM). After an incubation of 1 hour at room temperature, the plate was read on an Envision with an excitation wavelength of 340 nm and a reading emission at both 520 nm and 495 nm. The ratio of the 520 nm and 495 nm emission was used to analyze the data. Inhibition of mutant G2019S LRRK2 (Invitrogen cat #PV4881) was measured in the exact same method. All final concentrations of substrate ATP and enzyme were the same.

[2] = target: mutant G2019S LRRK2 (Homo sapiens (Human), UniProt Q5S007, G2019S); assay: LRRK2 kinase assay (Lantha Screen), mutant G2019S; format: biochemical; details: 100 nM LRRKtide, 1 mM ATP, 2 μg/mL enzyme; single determination unless otherwise indicated
Chain of mutant G2019S LRRK2 (Q5S007 970-2527 G2019S): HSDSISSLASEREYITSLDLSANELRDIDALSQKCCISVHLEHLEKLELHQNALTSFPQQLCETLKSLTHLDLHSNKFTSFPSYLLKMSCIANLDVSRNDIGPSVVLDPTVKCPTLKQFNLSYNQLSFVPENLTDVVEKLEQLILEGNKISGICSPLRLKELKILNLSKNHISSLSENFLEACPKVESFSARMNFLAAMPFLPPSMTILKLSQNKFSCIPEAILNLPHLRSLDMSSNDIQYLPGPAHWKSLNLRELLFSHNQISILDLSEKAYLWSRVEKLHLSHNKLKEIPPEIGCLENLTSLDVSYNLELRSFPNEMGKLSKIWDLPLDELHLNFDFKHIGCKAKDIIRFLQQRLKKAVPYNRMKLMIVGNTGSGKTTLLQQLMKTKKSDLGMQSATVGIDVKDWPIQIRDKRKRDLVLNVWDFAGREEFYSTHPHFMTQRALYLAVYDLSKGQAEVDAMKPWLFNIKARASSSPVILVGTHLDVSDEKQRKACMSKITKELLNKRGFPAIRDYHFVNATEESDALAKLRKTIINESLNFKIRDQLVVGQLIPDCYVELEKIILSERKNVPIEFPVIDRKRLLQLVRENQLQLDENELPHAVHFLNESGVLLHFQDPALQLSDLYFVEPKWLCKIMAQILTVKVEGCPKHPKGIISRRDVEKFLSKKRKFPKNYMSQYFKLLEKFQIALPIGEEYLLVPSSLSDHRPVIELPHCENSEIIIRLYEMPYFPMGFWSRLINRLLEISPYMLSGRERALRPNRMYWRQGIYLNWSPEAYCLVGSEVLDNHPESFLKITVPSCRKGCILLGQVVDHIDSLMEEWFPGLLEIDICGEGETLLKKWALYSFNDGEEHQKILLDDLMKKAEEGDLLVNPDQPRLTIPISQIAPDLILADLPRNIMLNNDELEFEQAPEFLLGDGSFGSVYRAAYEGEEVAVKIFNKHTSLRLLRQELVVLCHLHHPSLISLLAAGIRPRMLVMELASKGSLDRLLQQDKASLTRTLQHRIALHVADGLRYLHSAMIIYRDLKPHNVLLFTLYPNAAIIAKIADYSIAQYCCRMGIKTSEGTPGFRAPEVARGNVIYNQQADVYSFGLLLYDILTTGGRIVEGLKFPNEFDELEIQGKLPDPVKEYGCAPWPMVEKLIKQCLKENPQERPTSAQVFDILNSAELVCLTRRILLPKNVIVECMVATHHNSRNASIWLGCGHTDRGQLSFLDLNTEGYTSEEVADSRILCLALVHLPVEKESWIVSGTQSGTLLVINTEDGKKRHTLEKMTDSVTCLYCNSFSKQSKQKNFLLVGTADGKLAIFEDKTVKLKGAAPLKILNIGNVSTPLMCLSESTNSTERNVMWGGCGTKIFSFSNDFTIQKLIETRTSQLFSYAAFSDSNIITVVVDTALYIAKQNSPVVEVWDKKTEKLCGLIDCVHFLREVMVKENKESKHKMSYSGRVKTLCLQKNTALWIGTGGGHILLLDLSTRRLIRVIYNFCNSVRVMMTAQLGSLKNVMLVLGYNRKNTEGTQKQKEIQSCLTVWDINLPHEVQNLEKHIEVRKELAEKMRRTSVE
Description: as §1

Chain of LRRK2, WT (GST-tagged truncated LRRK2) (Q5S007 970-2527): as the sequence (Q5S007 970-2527 G2019S) above, with S1050G counted along it

| Compound | IC50 [1] [nM] | IC50 [2] [nM] |
| --- | --- | --- |
| CC1CC(c2nc3cnc4ccc(Cl)cc4c3n2[C@@H]2CCO[C@H](C)C2)CO1 (stereo partly drawn) [Example 10, 8-chloro-2-(5-methyltetrahydrofuran-3-yl)-1-[(2R,4R)-2-methyltetrahydro-2H-pyran-4-yl]-1H-imidazo[4,5-c]quinoline] | 23.1 | 23.3 |
| C[C@@H]1C[C@H](n2c(C3CCC(F)(F)C3)nc3cnc4ccc(Cl)cc4c32)CCO1 (stereo partly drawn) [Example 11, 8-chloro-2-(3,3-difluorocyclopentyl)-1-[(2R,4R)-2-methyltetrahydro-2H-pyran-4-yl]-1H-imidazo[4,5-c]quinoline] | 20.3 | 13.8 |
| C[C@@H]1C[C@H](n2c(C3COC3)nc3cnc4ccc(Cl)cc4c32)CCO1 [Example 12, 8-chloro-1-[(2R,4R)-2-methyltetrahydro-2H-pyran-4-yl]-2-(oxetan-3-yl)-1H-imidazo[4,5-c]quinoline] | 23 | 21.2 |
| C[C@@H]1C[C@H](n2c(C3CCC(F)C3)nc3cnc4ccc(F)cc4c32)CCO1 (stereo partly drawn) [Example 37, 8-fluoro-2-[trans-3-fluorocyclopentyl]-1-[(2R,4R)-2-methyltetrahydro-2H-pyran-4-yl]-1H-imidazo[4,5-c]quinoline] | 200 |  |
| C[C@@H]1C[C@H](n2c(C3CCC(F)C3)nc3cnc4ccc(F)cc4c32)CCO1 (stereo partly drawn) [Example 38, 8-fluoro-2-[trans-3-fluorocyclopentyl]-1-[(2R,4R)-2-methyltetrahydro-2H-pyran-4-yl]-1H-imidazo[4,5-c]quinoline] | 202 |  |
| N#Cc1ccc2ncc3nc([C@H]4C[C@H](F)C4)n(C4CCOCC4(F)F)c3c2c1 (stereo partly drawn) [Example 45, 1-(3,3-difluorotetrahydro-2H-pyran-4-yl)-2-(trans-3-fluorocyclobutyl)-1H-imidazo[4,5-c]quinoline-8-carbonitrile] | 2140 |  |
| CO[C@H]1C[C@H](c2nc3cnc4ccc(C#N)cc4c3n2C2CCOCC2(F)F)C1 (stereo partly drawn) [Example 50, 1-(3,3-difluorotetrahydro-2H-pyran-4-yl)-2-(trans-3-methoxycyclobutyl)-1H-imidazo[4,5-c]quinoline-8-carbonitrile] | > 3000 |  |
| CO[C@H]1C[C@H](c2nc3cnc4ccc(C#N)cc4c3n2C2CCOCC2(F)F)C1 (stereo partly drawn) [Example 51, 1-(3,3-difluorotetrahydro-2H-pyran-4-yl)-2-(trans-3-methoxycyclobutyl)-1H-imidazo[4,5-c]quinoline-8-carbonitrile] | 272 |  |
| CC1(C)C[C@H](n2c([C@H]3CC[C@H](F)C3)nc3cnc4ccc(C#N)cc4c32)CCO1 [Example 53, 1-[(4R)-2,2-dimethyltetrahydro-2H-pyran-4-yl]-2-[(1S,3S)-3-fluorocyclopentyl]-1H-imidazo[4,5-c]quinoline-8-carbonitrile] | 413 |  |
| CC1(C)C[C@H](n2c([C@@H]3CC[C@H](F)C3)nc3cnc4ccc(C#N)cc4c32)CCO1 [Example 54, 1-[(4R)-2,2-dimethyltetrahydro-2H-pyran-4-yl]-2-[(1R,3S)-3-fluorocyclopentyl]-1H-imidazo[4,5-c]quinoline-8-carbonitrile] | > 3000 |  |
| CC1(C)C[C@H](n2c([C@@H]3CC[C@@H](F)C3)nc3cnc4ccc(C#N)cc4c32)CCO1 [Example 55, 1-[(4R)-2,2-dimethyltetrahydro-2H-pyran-4-yl]-2-[(1R,3R)-3-fluorocyclopentyl]-1H-imidazo[4,5-c]quinoline-8-carbonitrile] | 2520 |  |
| CC1(C)C[C@H](n2c([C@H]3CC[C@@H](F)C3)nc3cnc4ccc(C#N)cc4c32)CCO1 [Example 56, 1-[(4R)-2,2-dimethyltetrahydro-2H-pyran-4-yl]-2-[(1S,3R)-3-fluorocyclopentyl]-1H-imidazo[4,5-c]quinoline-8-carbonitrile] | > 3000 |  |
| CN1CC(n2c(C3CCC(F)C3)nc3cnc4ccc(C#N)cc4c32)C(F)(F)C1 (stereo not drawn) [Example 61, 1-(4,4-difluoro-1-methylpyrrolidin-3-yl)-2-(3-fluorocyclopentyl)-1H-imidazo[4,5-c]quinoline-8-carbonitrile] | 464 |  |
| CN1CC(n2c(C3CCC(F)C3)nc3cnc4ccc(C#N)cc4c32)C(F)(F)C1 (stereo not drawn) [Example 62, 1-(4,4-difluoro-1-methylpyrrolidin-3-yl)-2-(3-fluorocyclopentyl)-1H-imidazo[4,5-c]quinoline-8-carbonitrile] | > 3000 |  |
| CN1CC(n2c(C3CCC(F)C3)nc3cnc4ccc(C#N)cc4c32)C(F)(F)C1 (stereo not drawn) [Example 63, 1-(4,4-difluoro-1-methylpyrrolidin-3-yl)-2-(3-fluorocyclopentyl)-1H-imidazo[4,5-c]quinoline-8-carbonitrile] | > 1840 |  |
| CN1CC(n2c(C3CCC(F)C3)nc3cnc4ccc(C#N)cc4c32)C(F)(F)C1 (stereo not drawn) [Example 64, 1-(4,4-difluoro-1-methylpyrrolidin-3-yl)-2-(3-fluorocyclopentyl)-1H-imidazo[4,5-c]quinoline-8-carbonitrile] | 2300 |  |

Compounds with a lower IC50 [1], results first:

| IC50 [1] [nM] | IC50 [2] [nM] | Compound |
| --- | --- | --- |
| 19.1 | 11.9 | CO[C@H]1C[C@@H](c2nc3cnc4ccc(Cl)cc4c3n2[C@@H]2CCO[C@H](C)C2)C1 [Example 6, 8-chloro-2-(cis-3-methoxycyclobutyl)-1-[(2R,4R)-2-methyltetrahydro-2H-pyran-4-yl]-1H-imidazo[4,5-c]quinoline] |
| 18.5 | 11.3 | C[C@@H]1C[C@H](n2c(C3CCCO3)nc3cnc4ccc(Cl)cc4c32)CCO1 (stereo partly drawn) [Example 9, 8-chloro-1-[(2R,4R)-2-methyltetrahydro-2H-pyran-4-yl]-2-(tetrahydrofuran-2-yl)-1H-imidazo[4,5-c]quinoline] |
| 16.6 |  | C[C@@H]1C[C@H](n2c([C@H]3CCOC3)nc3cnc4ccc(C(F)F)cc4c32)CCO1 [Example 21, 8-(difluoromethyl)-1-((2R,4R)-2-methyltetrahydro-2H-pyran-4-yl)-2-((R)-tetrahydrofuran-3-yl)-1H-imidazo[4,5-c]quinoline] |
| 16.4 | 17.2 | C[C@@H]1C[C@H](n2c(C3CC(C)(F)C3)nc3cnc4ccc(Cl)cc4c32)CCO1 (stereo partly drawn) [Example 5, 8-chloro-2-(3-fluoro-3-methylcyclobutyl)-1-[(2R,4R)-2-methyltetrahydro-2H-pyran-4-yl]-1H-imidazo[4,5-c]quinoline] |
| 16.3 | 18.2 | C[C@@H]1C[C@H](n2c(C3CCOCC3)nc3cnc4ccc(Cl)cc4c32)CCO1 [Example 7, 8-chloro-1-[(2R,4R)-2-methyltetrahydro-2H-pyran-4-yl]-2-(tetrahydro-2H-pyran-4-yl)-1H-imidazo[4,5-c]quinoline] |
| 15.9 | 12.1 | C[C@@H]1C[C@H](n2c(C3CCC(F)(F)CC3)nc3cnc4ccc(Cl)cc4c32)CCO1 [Example 8, 8-chloro-2-(4,4-difluorocyclohexyl)-1-[(2R,4R)-2-methyltetrahydro-2H-pyran-4-yl]-1H-imidazo[4,5-c]quinoline] |
| 12.3 | 7.4 | C[C@@H]1C[C@H](n2c([C@H]3CCOC3)nc3cnc4ccc(Cl)cc4c32)CCO1 [Example 4, 8-chloro-1-[(2R,4R)-2-methyltetrahydro-2H-pyran-4-yl]-2-[(3R)-tetrahydrofuran-3-yl]-1H-imidazo[4,5-c]quinoline] |
| 12 | 12.2 | N#CC[C@@H]1C[C@H](n2c(C3CC(F)(F)C3)nc3cnc4ccc(Cl)cc4c32)CCO1 (single isomer, unassigned) [Example 27, {cis-4-[8-chloro-2-(3,3-difluorocyclobutyl)-1H-imidazo[4,5-c]quinolin-1-yl]tetrahydro-2H-pyran-2-yl}acetonitrile] |
| 8.99 | 5.49 | C[C@@H]1C[C@H](n2c3c(cnc4ccc(Cl)cc43)nc2[C@H]2C[C@@H](F)C2)CCO1 [Example 2, 8-chloro-2-(cis-3-fluorocyclobutyl)-1-[(2R,4R)-2-methyltetrahydro-2H-pyran-4-yl]-1H-imidazo[4,5-c]quinoline] |
| 7.32 | 4.75 | C[C@@H]1C[C@H](n2c3c(cnc4ccc(Cl)cc43)nc2[C@H]2CC[C@@H](F)CC2)CCO1 [Example 1, 8-chloro-2-(cis-4-fluorocyclohexyl)-1-[(2R,4R)-2-methyltetrahydro-2H-pyran-4-yl]-1H-imidazo[4,5-c]quinoline] |
| 6.81 | 5.44 | C[C@@H]1C[C@H](n2c(C3CC(C)(F)C3)nc3cnc4ccc(Cl)cc4c32)CCO1 (stereo partly drawn) [Example 3, 8-chloro-2-(cis-3-fluoro-3-methylcyclobutyl)-1-[(2R,4R)-2-methyltetrahydro-2H-pyran-4-yl]-1H-imidazo[4,5-c]quinoline] |
| 6.29 | 3.84 | C[C@@H]1C[C@H](n2c(C3CCC(F)C3)nc3cnc4ccc(C#N)cc4c32)CCO1 (single isomer, unassigned) [Example 13] |
